{
  "source": "patent US20220105157A1",
  "about": "“Compositions and Methods for Promoting Angiogenesis in the Eye” (The Regents of the University of California, priority 2019, published 2022)",
  "key": {"[1]": {"tested_on": "human retinal microvascular endothelial (HRME) cells", "experiment": "HRME endothelial cell proliferation assay (alamar blue)", "format": "cell-based", "method": "The bovine endothelial proliferation assays were performed essentially as previously described (63, 64). BCE (1×10^3 cells/well) or BRE (5×10^2 cells/well) cells were seeded in 96-well plates in the culture medium (DMEM-low glucose supplemented with 10% BCS, 2 mM glutamine and antibiotics) plus testing materials with a total volume of 200 μl per well. BAE cells were plated in 96-well plates at a density of 2×10^3 cells in the culture medium (DMEM-low glucose supplemented with 1% BCS and antibiotics) plus testing material with a total volume of 200 μl per well. HRME cells were seeded at a density of 1×10^3 cells/well in gelatin-coated 96-well plates in assay medium (DMEM-low glucose supplemented with 20% FBS and antibiotics) plus testing materials to make a total volume 200 μl per well. For assays involving antibodies or small-molecule inhibitors, inhibitors or vehicle controls were first added and then test materials were added one hour later. After 6 days (unless otherwise specified), cells were incubated with alamar blue for 4 h. Fluorescence was measured at 530 nm excitation wavelength and 590 nm emission wavelength. Each experiment was carried out in duplicate/triplicate and repeated at least three times."}, "[2]": {"tested_on": "phosphorylation of STAT3, ERK and AKT in BCE cells", "experiment": "Western blotting of LIF signaling in BCE cells", "format": "cell-based, bovine", "conditions": "LIF treatment for 15 minutes", "method": "(§1) BCE and BAE cells were cultured in growth medium overnight. Growth medium was removed and then cells were washed twice with PBS. Recombinant human LIF was added to cells for 15 minutes, following 3-hour incubation in the following medium: DMEM-low glucose supplemented with 10% BCS, 2 mM glutamine and antibiotics for BCE cells, and DMEM-low glucose supplemented with 1% BCS and antibiotics for BAE cells. […] Cells were then lysed with RIPA lysis buffer (Life Technologies, CAT #89901) plus protease and phosphatase inhibitor cocktail (ThermoFisher Scientific CAT #78440). Protein concentrations in cell lysates were measured with the BCA assay (ThermoFisher Scientific CAT #23227). Equal amount of proteins were subjected to electrophoresis in NuPAGE 4-12% Bis-Tris gels (ThermoFisher Scientific, CAT #NW04125BOX) and then transferred onto PVDF membranes. Membranes were blocked with 5% non-fat milk in TBST at room temperature for 1 hour, incubated with primary antibodies indicated below in TBST containing 0.5% non-fat milk at 4° C. overnight then with secondary HRP-conjugated antibodies (1:2000, GE Healthcare) at room temperature for 1 h. Signals were developed with SuperSignal™ West Pico PLUS Chemiluminescent Substrate (ThermoFisher Scientific). Primary antibodies used: anti-phospho-STAT3 (Cell Signaling, CAT #9131, 1:3000), anti-STAT3 (Cell Signaling, CAT #4904, 1:3000), anti-phospho-ERK (Cell Signaling, CAT #4376, 1:5000), anti-ERK (Cell Signaling, CAT #4695, 1:5000), anti-phospho-AKT Ser473 (Cell Signaling, CAT #4060, 1:2000), anti-AKT (Cell Signaling, CAT #4691, 1:2000) and HRP-conjugated anti-beta-actin (Sigma, CAT #AC-15, 1; 10000)."}, "[3]": {"tested_on": "phosphorylation of STAT3, ERK and AKT in BAE cells", "experiment": "Western blotting of LIF signaling in BAE cells", "format": "cell-based, bovine", "conditions": "LIF treatment for 15 minutes", "method": "as §1"}, "[4]": {"tested_on": "retinal vasculature of mouse eyes", "experiment": "Intravitreal injection of recombinant proteins in mouse eyes, retinal vessel density", "format": "in vivo", "conditions": "for retinal microvessel density (CD31): 6-8 week old mice, intravitreal", "method": "Male C57BL/6J mice (6-8 week and P5) were anesthetized with ketamine/Xylazine cocktail. The indicated amounts of recombinant LIF (Sigma, CAT #SRP9001) in 1 μl of PBS and PBS vehicle control were injected intravitreally with a 33-gauge Hamilton syringe. Seven (for adult mice) or 3 (for neonatal mice) days after injection, animals were euthanized, eyes were then enucleated and fixed in 4% paraformaldehyde (PFA) for 15 min. Choroid-sclera complexes and retinas were separated and anti-CD31 immunofluorescence (IF) or lectin labeling was performed to evidence the vasculature by whole mount staining of both retina and choroidal tissues or flat-mounts of retina. For CD31 IF, rat anti-mouse antibody (BD Biosciences, CAT #550274) was diluted 1:100 and incubated overnight at 4° C. After 4-hour incubation with the Alexa Fluor-488-conjugated anti-rat antibody (Life Technologies, CAT #A11006), whole mounts were imaged via the 488 nm channel using Keyence Microscope BZ-X710 (Keyence Corporation, Osaka, Japan) or A1R Confocal STORM super-resolution system (Nikon). For lectin staining, Dylight-488-labeled lectin (Vector Laboratories, CAT #DL-1174) was diluted at 1:200 and images were obtained using A1R Confocal STORM super-resolution system (Nikon). For Quantification of vascular density in choroids and retina was carried out by Image J. Student's t test was used for statistical analysis. Each experiment was repeated three times with similar results each time, and each treatment group consists of 4 or 5 individual samples in every experiment. All animal experimental procedures were approved by the Institutional Animal Care and Use Committee (IACUC) of the University of California San Diego and conducted in accordance with the guidelines of the Animal Care Program (ACP).\nOptical coherence tomography angiography (OCTA) imaging of the retina of adult mice was performed 7 days after LIF injection, using a 1300 nm optical coherence tomography (OCT) system developed by Dr. R. K. Wang's group at University of Washington Seattle, in agreement with previously described methodology (66). Briefly, the swept laser operated in single longitude mode with a 90 nm bandwidth centered at 1300 nm and 200 kHz A-line rate was used to scan mouse retina and to generate images of vasculature in a field of view of 1.5×1.5 mm^2. 2500 B-frames were captured at 500 cross-sections with five repeated B-frames at each cross-section. To quantify the retinal vascular density, retinal and choroidal layers in 3D structure OCT scans were separated by the hyper-reflecting retinal pigment epithelium (RPE). Then the en face maximum intensity projection was generated. The vessel density was then determined by calculating the percentages of vessel-covered area in total area of view using the ImageJ software."}, "mouse retina": {"tested_on": "mouse retina", "experiment": "Measurement of vascular leakage in retina (TRITC-dextran)", "format": "in vivo", "conditions": "mice, LIF 10 ng intravitreally", "method": "Recombinant human VEGF (100 ng) or LIF (10 ng) was injected into the vitreous (0.1% BSA PBS solution as vehicle control). TRITC-dextran (50 mg/ml, 100 ul) was then injected into the tail vein. Ten minute later, animals were sacrificed and eyes were enucleated. Retina flat mount was imaged under microscope (65)."}},
  "data": [
    {"substance": "LIF: recombinant human leukemia inhibitory factor, a member of the IL-6 family of cytokines", "values": [
      {"measurement": "effect on VEGF-stimulated growth of human retinal microvascular endothelial cells", "setting": "[1]; LIF added to VEGF", "value": "significantly enhanced VEGF-stimulated growth"},
      {"measurement": "mitogenic response in human retinal microvascular endothelial cells", "setting": "[1]; LIF alone", "value": "did not elicit a strong mitogenic response"},
      {"measurement": "AKT phosphorylation", "setting": "[2]", "value": "little effects"},
      {"measurement": "phosphorylation of ERK", "setting": "[2]", "value": "elicited phosphorylation"},
      {"measurement": "phosphorylation of STAT3", "setting": "[2]", "value": "elicited phosphorylation"},
      {"measurement": "phosphorylation of AKT", "setting": "[3]", "value": "led to phosphorylation"},
      {"measurement": "phosphorylation of ERK (MAPK)", "setting": "[3]", "value": "led to phosphorylation"},
      {"measurement": "phosphorylation of STAT3", "setting": "[3]", "value": "led to phosphorylation"},
      {"measurement": "retinal vascular density in neonatal mice (lectin)", "setting": "[4]; 5-day postnatal (P5) mice, intravitreal LIF 50 ng, three days after the injection", "value": "significant increase in vascular density"},
      {"measurement": "retinal microvessel density (CD31)", "setting": "[4]; 10 ng per eye, 7 days", "value": "significantly increased"},
      {"measurement": "retinal microvessel density (CD31)", "setting": "[4]; 100 ng, 7 days", "value": "less effective"},
      {"measurement": "vessel density in retina, CD31 immunofluorescence in cross sections of mouse eyes", "setting": "[4]; adult mice, intravitreal LIF 10 ng, 7 days", "value": "increased vessel density"},
      {"measurement": "retinal vessel density by OCTA", "setting": "[4]; adult mice, intravitreal LIF 50 ng, 7 days", "value": "significant increases"},
      {"measurement": "retinal microvascular leakage", "setting": "mouse retina", "value": "does not induce retinal microvascular leakage"}
    ]}
  ]
}
